According to ChEMBL document CHEMBL1143796, “Synthesis and antimicrobial activity of 1-(4-aryl-2-thiazolyl)-3-(2-thienyl)-5-aryl-2-pyrazoline derivatives” (2007):
In brackets after ≈: the same amount, converted by molar mass.

What was measured:
Salmonella typhimurium = experiment: Antibacterial activity against Salmonella Typhimurium NRRL B4420 by microbroth dilution method; format: functional, Salmonella enterica subsp. enterica serovar Typhimurium; details: Salmonella enterica
Bacillus cereus = experiment: Antibacterial activity against Bacillus cereus NRRL B3711 by micro-broth dilution method; format: functional
Enterococcus faecalis = experiment: Antibacterial activity against Streptococcus faecalis NRRL B14617 by micro-broth dilution method; format: functional
Aeromonas hydrophila = experiment: Antibacterial activity against Aeromonas hydrophila by micro-broth dilution method; format: functional
Candida albicans = experiment: Antifungal activity against Candida albicans by micro-broth dilution method; format: functional
Nakaseomyces glabratus = experiment: Antifungal activity against Candida glabrata by broth dilution antifungal susceptibility testing; format: functional
Escherichia coli = experiment: Antibacterial activity against Escherichia coli NRRL B3704 by microbroth dilution method; format: functional
Staphylococcus aureus = experiment: Antibacterial activity against Staphylococcus aureus NRRL B767 by micro-broth dilution method; format: functional

Work on `O=[N+]([O-])c1ccc(-c2csc(N3N=C(c4cccs4)CC3c3cccnc3)n2)cc1` (stereo not given) yielded an MIC (Salmonella typhimurium) of 125 µg/mL (≈ 288 µM), an MIC (Bacillus cereus) of 125 µg/mL (≈ 288 µM) and an MIC (Enterococcus faecalis) of 125 µg/mL (≈ 288 µM). For the same compound, the MIC (Aeromonas hydrophila) was 31.2 µg/mL (≈ 72.1 µM), the MIC (Candida albicans) was 62.5 µg/mL (≈ 144 µM) and the MIC (Nakaseomyces glabratus) was 62.5 µg/mL (≈ 144 µM). For the same compound, the MIC (Escherichia coli) was 250 µg/mL (≈ 577 µM) and the MIC (Staphylococcus aureus) was 31.2 µg/mL (≈ 72.1 µM).

`c1ccc(-c2csc(N3N=C(c4cccs4)CC3c3ccccn3)n2)cc1` (stereo not given) was tested, and the MIC (Salmonella typhimurium) was 125 µg/mL (≈ 322 µM), the MIC (Bacillus cereus) was 250 µg/mL (≈ 643 µM) and the MIC (Enterococcus faecalis) was 250 µg/mL (≈ 643 µM). The MIC (Aeromonas hydrophila) was 62.5 µg/mL (≈ 161 µM), the MIC (Candida albicans) was 62.5 µg/mL (≈ 161 µM) and the MIC (Nakaseomyces glabratus) was 62.5 µg/mL (≈ 161 µM). For the same compound, the MIC (Escherichia coli) was 125 µg/mL (≈ 322 µM) and the MIC (Staphylococcus aureus) was 250 µg/mL (≈ 643 µM).

With `COc1ccc(-c2csc(N3N=C(c4cccs4)CC3c3ccccn3)n2)cc1` (stereo not given) the MIC (Salmonella typhimurium) was 125 µg/mL (≈ 299 µM), the MIC (Bacillus cereus) was 250 µg/mL (≈ 597 µM) and the MIC (Enterococcus faecalis) was 250 µg/mL (≈ 597 µM). For the same compound, the MIC (Aeromonas hydrophila) was 62.5 µg/mL (≈ 149 µM), the MIC (Candida albicans) was 62.5 µg/mL (≈ 149 µM) and the MIC (Nakaseomyces glabratus) was 62.5 µg/mL (≈ 149 µM). It also gave an MIC (Escherichia coli) of 125 µg/mL (≈ 299 µM) and an MIC (Staphylococcus aureus) of 125 µg/mL (≈ 299 µM).

Work on `Clc1ccc(-c2csc(N3N=C(c4cccs4)CC3c3ccccn3)n2)cc1` (stereo not given) yielded an MIC (Salmonella typhimurium) of 250 µg/mL (≈ 591 µM), an MIC (Bacillus cereus) of 250 µg/mL (≈ 591 µM) and an MIC (Enterococcus faecalis) of 250 µg/mL (≈ 591 µM). It also gave an MIC (Aeromonas hydrophila) of 125 µg/mL (≈ 296 µM), an MIC (Candida albicans) of 125 µg/mL (≈ 296 µM) and an MIC (Nakaseomyces glabratus) of 125 µg/mL (≈ 296 µM). It also gave an MIC (Escherichia coli) of 125 µg/mL (≈ 296 µM) and an MIC (Staphylococcus aureus) of 250 µg/mL (≈ 591 µM).

For `O=[N+]([O-])c1ccc(-c2csc(N3N=C(c4cccs4)CC3c3ccccn3)n2)cc1` (stereo not given), the MIC (Salmonella typhimurium) was 250 µg/mL (≈ 577 µM), the MIC (Bacillus cereus) was 500 µg/mL (≈ 1150 µM) and the MIC (Enterococcus faecalis) was 500 µg/mL (≈ 1150 µM). The MIC (Aeromonas hydrophila) was 125 µg/mL (≈ 288 µM), the MIC (Candida albicans) was 125 µg/mL (≈ 288 µM) and the MIC (Nakaseomyces glabratus) was 125 µg/mL (≈ 288 µM). For the same compound, the MIC (Escherichia coli) was 125 µg/mL (≈ 288 µM) and the MIC (Staphylococcus aureus) was 250 µg/mL (≈ 577 µM).

In the case of `O=[N+]([O-])c1ccc(-c2csc(N3N=C(c4cccs4)CC3c3ccncc3)n2)cc1` (stereo not given), the MIC (Salmonella typhimurium) is reported as 125 µg/mL (≈ 288 µM), the MIC (Bacillus cereus) is reported as 62.5 µg/mL (≈ 144 µM) and the MIC (Enterococcus faecalis) is reported as 250 µg/mL (≈ 577 µM). It also gave an MIC (Aeromonas hydrophila) of 125 µg/mL (≈ 288 µM), an MIC (Candida albicans) of 125 µg/mL (≈ 288 µM) and an MIC (Nakaseomyces glabratus) of 125 µg/mL (≈ 288 µM). For the same compound, the MIC (Escherichia coli) was 125 µg/mL (≈ 288 µM) and the MIC (Staphylococcus aureus) was 125 µg/mL (≈ 288 µM).

In the case of `Cc1ccc(-c2csc(N3N=C(c4cccs4)CC3c3cccnc3)n2)cc1` (stereo not given), the MIC (Salmonella typhimurium) is reported as 125 µg/mL (≈ 311 µM), the MIC (Bacillus cereus) is reported as 250 µg/mL (≈ 621 µM) and the MIC (Enterococcus faecalis) is reported as 250 µg/mL (≈ 621 µM). For the same compound, the MIC (Aeromonas hydrophila) was 250 µg/mL (≈ 621 µM), the MIC (Candida albicans) was 125 µg/mL (≈ 311 µM) and the MIC (Nakaseomyces glabratus) was 125 µg/mL (≈ 311 µM). For the same compound, the MIC (Escherichia coli) was 250 µg/mL (≈ 621 µM) and the MIC (Staphylococcus aureus) was 125 µg/mL (≈ 311 µM).

For `Cc1ccc(-c2csc(N3N=C(c4cccs4)CC3c3ccncc3)n2)cc1` (stereo not given), the MIC (Salmonella typhimurium) was 125 µg/mL (≈ 311 µM), the MIC (Bacillus cereus) was 62.5 µg/mL (≈ 155 µM) and the MIC (Enterococcus faecalis) was 250 µg/mL (≈ 621 µM). The MIC (Aeromonas hydrophila) was 125 µg/mL (≈ 311 µM), the MIC (Candida albicans) was 125 µg/mL (≈ 311 µM) and the MIC (Nakaseomyces glabratus) was 125 µg/mL (≈ 311 µM). The MIC (Escherichia coli) was 250 µg/mL (≈ 621 µM) and the MIC (Staphylococcus aureus) was 125 µg/mL (≈ 311 µM).

With `COc1ccc(-c2csc(N3N=C(c4cccs4)CC3c3ccncc3)n2)cc1` (stereo not given) the MIC (Salmonella typhimurium) was 125 µg/mL (≈ 299 µM), the MIC (Bacillus cereus) was 62.5 µg/mL (≈ 149 µM) and the MIC (Enterococcus faecalis) was 250 µg/mL (≈ 597 µM). The MIC (Aeromonas hydrophila) was 125 µg/mL (≈ 299 µM), the MIC (Candida albicans) was 62.5 µg/mL (≈ 149 µM) and the MIC (Nakaseomyces glabratus) was 62.5 µg/mL (≈ 149 µM). For the same compound, the MIC (Escherichia coli) was 125 µg/mL (≈ 299 µM) and the MIC (Staphylococcus aureus) was 125 µg/mL (≈ 299 µM).

For `c1ccc(-c2csc(N3N=C(c4cccs4)CC3c3cccnc3)n2)cc1` (stereo not given), the MIC (Salmonella typhimurium) was 250 µg/mL (≈ 643 µM), the MIC (Bacillus cereus) was 250 µg/mL (≈ 643 µM) and the MIC (Enterococcus faecalis) was 250 µg/mL (≈ 643 µM). The MIC (Aeromonas hydrophila) was 250 µg/mL (≈ 643 µM), the MIC (Candida albicans) was 250 µg/mL (≈ 643 µM) and the MIC (Nakaseomyces glabratus) was 250 µg/mL (≈ 643 µM). For the same compound, the MIC (Escherichia coli) was 250 µg/mL (≈ 643 µM) and the MIC (Staphylococcus aureus) was 125 µg/mL (≈ 322 µM).

In the case of `COc1ccc(-c2csc(N3N=C(c4cccs4)CC3c3cccnc3)n2)cc1` (stereo not given), the MIC (Salmonella typhimurium) is reported as 125 µg/mL (≈ 299 µM), the MIC (Bacillus cereus) is reported as 250 µg/mL (≈ 597 µM) and the MIC (Enterococcus faecalis) is reported as 250 µg/mL (≈ 597 µM). The MIC (Aeromonas hydrophila) was 125 µg/mL (≈ 299 µM), the MIC (Candida albicans) was 125 µg/mL (≈ 299 µM) and the MIC (Nakaseomyces glabratus) was 125 µg/mL (≈ 299 µM). It also gave an MIC (Escherichia coli) of 250 µg/mL (≈ 597 µM) and an MIC (Staphylococcus aureus) of 250 µg/mL (≈ 597 µM).

`Clc1ccc(-c2csc(N3N=C(c4cccs4)CC3c3cccnc3)n2)cc1` (stereo not given) showed an MIC (Salmonella typhimurium) of 250 µg/mL (≈ 591 µM), an MIC (Bacillus cereus) of 125 µg/mL (≈ 296 µM) and an MIC (Enterococcus faecalis) of 125 µg/mL (≈ 296 µM). For the same compound, the MIC (Aeromonas hydrophila) was 250 µg/mL (≈ 591 µM), the MIC (Candida albicans) was 250 µg/mL (≈ 591 µM) and the MIC (Nakaseomyces glabratus) was 250 µg/mL (≈ 591 µM). For the same compound, the MIC (Escherichia coli) was 250 µg/mL (≈ 591 µM) and the MIC (Staphylococcus aureus) was 250 µg/mL (≈ 591 µM).

`Clc1ccc(-c2csc(N3N=C(c4cccs4)CC3c3ccncc3)n2)cc1` (stereo not given) showed an MIC (Salmonella typhimurium) of 62.5 µg/mL (≈ 148 µM), an MIC (Bacillus cereus) of 62.5 µg/mL (≈ 148 µM) and an MIC (Enterococcus faecalis) of 62.5 µg/mL (≈ 148 µM). It also gave an MIC (Aeromonas hydrophila) of 62.5 µg/mL (≈ 148 µM), an MIC (Candida albicans) of 125 µg/mL (≈ 296 µM) and an MIC (Nakaseomyces glabratus) of 62.5 µg/mL (≈ 148 µM). It also gave an MIC (Escherichia coli) of 125 µg/mL (≈ 296 µM) and an MIC (Staphylococcus aureus) of 62.5 µg/mL (≈ 148 µM).

`c1ccc(-c2csc(N3N=C(c4cccs4)CC3c3ccncc3)n2)cc1` (stereo not given) was tested, and the MIC (Salmonella typhimurium) was 62.5 µg/mL (≈ 161 µM), the MIC (Bacillus cereus) was 31.2 µg/mL (≈ 80.4 µM) and the MIC (Enterococcus faecalis) was 31.2 µg/mL (≈ 80.4 µM). It also gave an MIC (Aeromonas hydrophila) of 31.2 µg/mL (≈ 80.4 µM), an MIC (Candida albicans) of 250 µg/mL (≈ 643 µM) and an MIC (Nakaseomyces glabratus) of 250 µg/mL (≈ 643 µM). The MIC (Escherichia coli) was 250 µg/mL (≈ 643 µM) and the MIC (Staphylococcus aureus) was 15.6 µg/mL (≈ 40.2 µM).

Compound `Cc1ccc(-c2csc(N3N=C(c4cccs4)CC3c3ccccn3)n2)cc1` (stereo not given) has an MIC (Salmonella typhimurium) of 125 µg/mL (≈ 311 µM), an MIC (Bacillus cereus) of 250 µg/mL (≈ 621 µM) and an MIC (Enterococcus faecalis) of 250 µg/mL (≈ 621 µM). It also gave an MIC (Aeromonas hydrophila) of 62.5 µg/mL (≈ 155 µM), an MIC (Candida albicans) of 62.5 µg/mL (≈ 155 µM) and an MIC (Nakaseomyces glabratus) of 62.5 µg/mL (≈ 155 µM). It also gave an MIC (Escherichia coli) of 125 µg/mL (≈ 311 µM) and an MIC (Staphylococcus aureus) of 250 µg/mL (≈ 621 µM).
